Patent US20250059231A1, “Protease inhibitors” (priority 2021, published 2025)
Where a SMILES comes first, the peptide text is derived from it. The star is where a group is joined. Palmitoyl = CCCCCCCCCCCCCCCC(=O)*

How the values were obtained:
DENV protease = target: T1, DENV protease (Dengue virus type 2, UniProt P29990); assay: biochemical; conditions: for inhibition at 50 µM: read-out: inhibition of DENV
T1 construct: The virus-encoded dengue protease comprises the amino-terminal 180 amino acids of NS3 (NS3pro) of the polyprotein
In short: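 DENV protease (100 nM) was pre-incubated 15 min with inhibitors in 50 mM Tris-HCl pH 9.0, 10% ethylene glycol, 0.0016% Brij 58. FRET substrate (50 μM final) started the reaction, monitored 15 min as RFU/s slope. IC50 came from triplicate means versus concentration.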

[1] = system: Dengue virus 2 (DENV2, ATCC VR-1584); assay: DENV2 infection in AG129 mice: clinical signs, body and spleen weights; format: in vivo; conditions: for Body weights of mice at the end of the study (Mean ± SD): b.i.d, n = 9; for general clinical signs of treated animals: 20 and 10 mg/kg
Procedure: The purpose of this study was to determine the efficacy of the compounds on Dengue virus 2 (DENV2, ATCC® VR-1584™) infection in AG129 mice.
Six groups of AG129 mice, 6-8 weeks old, with 9 mice per group were used to test compounds according to table 3.1.1. Animal room environment was monitored for temperature and relative humidity twice per day. The temperature range was 22° C.±3° C. and humidity range was 30-70%. The animals were provided with 12 hours light and 12 hours darkness. Feed and drinking water was provided ad libitum. Compounds 43 and 113 were tested.
C6/36 (ATCC(CRL-1660) cell lines were grown in RPMI 1640 medium (Gibco/HiMedia) plus 5% fetal bovine serum at 28° C. Dengue virus type 2 (ATCC®VR-1584™) New Guinea C(NGC, DENV2) was passaged in BHK-21 cell cultures to make sufficient stocks for assay. Virus titer was determined by TCID50 method using BHK-21 cells.
Twenty-four hours post treatment (Day 0), animals were injected intraperitoneally (IP) with 0.2 ml of virus suspension (˜5×10^7/animal).
The vehicle for tested compounds was 5% DMSO+95% (20%) hydroxypropylcyclodextrin. […] Formulations were prepared daily immediately before dosing.
(§1) Administration of compounds and vehicle to animals started twenty four hours before infection (Day −1). Animals were treated daily (From Day-1 to day 4) as per the experimental design shown below in table 3.1.5. Animals were monitored for general clinical signs, morbidity and mortality. Body weights were measured daily.
Animals were sacrificed on day 5 post infection with Isoflurane followed by an overdose of CO2. Spleens were excised, measured and weighed.
(§2) The Mean±SD Log10PFU/ml, relative Mean±SD spleen weight, Mean±SD biomarker concentrations were estimated in each group. Significant differences between group means and control were analyzed by one-way ANOVA, followed by a Dunnett's multiple comparison test, using GraphPad Prism 5 at 95% confidence levels. A p value of <0.05 was considered as significant.

TNF alpha = assay: DENV2 infection in AG129 mice: plasma TNF alpha (ELISA); format: in vivo; conditions: 10 mg/kg I.P, b.i.d; n = 9; vs vehicle control
Procedure: as §1
(§3) Cytokine levels (TNF alpha, IL-6 and IL-12) in plasma samples were measured using Enzyme-Linked Immunosorbent Assay (ELISA). Mouse TNF alpha ELISA Kit (Abcam: ab208348), Mouse IL-6 ELISA Kit (Abcam: ab100712), and Mouse IL-12 p40+IL-12 p70 ELISA Kit (Abcam: ab100699) were used to estimate TNF alpha, IL-6 and IL-12, respectively. The assays were performed according to the manufacturer's instructions and was analysed on a TECAN-NanoQuant Plate™ system.
as §2

IL-12 = assay: DENV2 infection in AG129 mice: plasma IL-12 (ELISA); format: in vivo; conditions: 10 mg/kg I.P, b.i.d; n = 9; vs vehicle control
Procedure: as §1, §3, §2

[2] = Cytotoxicity (method not described); format: cell-based
WNV protease = target: T2, WNV protease (West Nile virus, UniProt P06935); assay: WNV protease assay (analogous procedure); format: biochemical; conditions: at 50 μM
T2 construct: a trypsin-like serine protease domain in the N-terminal region of the flaviviral NS3 proteins
In short: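 Adapted from the DENV protease assay: inhibitors preincubated 15 min with protease (DENV at 100 nM) in 50 mM Tris-HCl pH 9.0, 10% ethylene glycol, 0.0016% Brij 58, then FRET substrate (50 μM final) added.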

human Trypsin = human Trypsin (Homo sapiens, UniProt P07477); assay: Selectivity screening, human serine protease trypsin; format: biochemical; conditions: read-out: inhibition of human Trypsin
In short: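 Active candidates were counter-screened for selectivity against the human serine protease trypsin in a biochemical assay similar to the flavivirus protease assay. Cleavage of a substrate by protease activity raises fluorescence, which is read on a microtiter fluorescence plate reader. Compounds are diluted from 10 mM DMSO stocks and tested in triplicate, and inhibition of trypsin is reported.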

T1 sequence (P29990 1398-1437): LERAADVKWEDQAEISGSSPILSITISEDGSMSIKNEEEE
T1 sequence (P29990 1476-1653): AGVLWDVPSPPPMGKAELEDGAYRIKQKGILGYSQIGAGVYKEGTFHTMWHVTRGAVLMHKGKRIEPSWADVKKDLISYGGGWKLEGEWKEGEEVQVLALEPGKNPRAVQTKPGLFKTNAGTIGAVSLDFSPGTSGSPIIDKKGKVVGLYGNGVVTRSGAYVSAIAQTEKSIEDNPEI
T2 sequence (P06935 1424-1463): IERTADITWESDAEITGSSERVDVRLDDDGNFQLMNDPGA
T2 sequence (P06935 1502-1679): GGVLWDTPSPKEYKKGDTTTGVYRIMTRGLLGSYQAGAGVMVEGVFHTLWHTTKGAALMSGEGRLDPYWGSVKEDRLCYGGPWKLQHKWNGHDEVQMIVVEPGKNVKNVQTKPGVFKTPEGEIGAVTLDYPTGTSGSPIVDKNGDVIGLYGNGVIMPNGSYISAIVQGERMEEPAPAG

SMILES | inhibition at 50 µM (DENV protease) [%] | inhibition of DENV protease (in words) (DENV protease; biochemical and cellular infection assays) | Body weights of mice at the end of the study (Mean ± SD) ([1]; 10 mg/kg I.P) [g] | Body weights of mice at the end of the study (Mean ± SD) ([1]; 20 mg/kg I.P) [g] | general clinical signs of treated animals [1] | Plasma concentration of TNF-alpha in mouse plasma after treatment (TNF alpha) | Plasma concentration of IL-12 in mouse plasma after treatment (IL-12) | cytotoxicity [2] | EC50 (West Nile virus) [µM] | EC50 (ZIKV) [µM] | inhibition at 50 µM (WNV protease) [%] | inhibition at 5 µM (human Trypsin; at 5 μM) [%] | inhibition at 25 µM (human Trypsin; at 25 μM) [%]
CCCCCCCCCCCCCCCC(=O)N[C@@H](CCCCN)CC(=O)N[C@@H](C)C(=O)N[C@@H](C)CC(=O)N[C@H](CCCCN)C(N)=O (stereo in doubt) [compound 113] | ≥ 25 | potent and specific inhibition | 17.22 ± 1.39 | 16.89 ± 1.36 | apparently normal | 25.99 ± 9.19 | 81.79 ± 14.30 | minimal cytotoxicity | ≤ 25 | ≤ 10 | – | – | –
CCCCCCCCCCCCCCCC(=O)N[C@@H](CCCNC(=N)N)C(=O)N[C@@H](CCC(N)=O)C(=O)N[C@@H](Cc1ccccc1)C(N)=O [compound 43] (Palmitoyl-Arg-Gln-Phe-NH2) | ≥ 25 | – | 18.78 ± 2.28 | 18.11 ± 1.45 | apparently normal | 32.45 ± 12.30 | – | – | ≤ 25 | – | ≥ 25 | < 10 | < 20
